Where “and” joins values, the source holds several entries; their conditions need not be identical. Identical values can stand only once.
Tests used:
Type in all cases: toxicity, cell-based
U2OS = experiment: Incucyte cell viability with U2OS; conditions: human, 10 µM, compound concentration 10 uM
HEK-293T = experiment: Incucyte cell viability with HEK293T; conditions: human, 10 µM, compound concentration 10 uM
Fibroblast = experiment: Incucyte cell viability with human fibroblast; conditions: 10 µM, compound concentration 10 uM
Also: unitless GR value; below 1 slowed growth and below 0 cell loss.

Cl.NC(=O)c1ccccc1Nc1nc(-c2ccc(N3CCOCC3)cc2)cc2ncccc12
Growth Rate (U2OS; 0 h, replicate number 2): 0.86
Growth Rate (U2OS; 6 h, replicate number 1): 0.76
Growth Rate (U2OS; 6 h, replicate number 2): 0.39
Growth Rate (U2OS; 12 h, replicate number 1): 0.57
Growth Rate (U2OS; 12 h, replicate number 2): 0.32
Growth Rate (U2OS; 18 h, replicate number 1): 0.62
Growth Rate (U2OS; 18 h, replicate number 2): 0.25
Growth Rate (U2OS; 24 h, replicate number 1): 0.66
Growth Rate (U2OS; 24 h, replicate number 2): 0.24
Growth Rate (HEK-293T; 0 h, replicate number 2): -1
Growth Rate (HEK-293T; 6 h, replicate number 1): -0.65
Growth Rate (HEK-293T; 6 h, replicate number 2): -0.55
Growth Rate (HEK-293T; 12 h, replicate number 1): -0.4
Growth Rate (HEK-293T; 12 h, replicate number 2): -0.36
Growth Rate (HEK-293T; 18 h, replicate number 1): -0.2
Growth Rate (HEK-293T; 18 h, replicate number 2): -0.24
Growth Rate (HEK-293T; 24 h, replicate number 1): -0.11
Growth Rate (Fibroblast; 6 h, replicate number 1): -0.14
Growth Rate (Fibroblast; 6 h, replicate number 2): -0.47
Growth Rate (Fibroblast; 12 h, replicate number 1): 0.05
Growth Rate (Fibroblast; 12 h, replicate number 2): -0.21
Growth Rate (Fibroblast; 18 h, replicate number 1): 0.13
Growth Rate (Fibroblast; 18 h, replicate number 2): -0.14
Growth Rate (Fibroblast; 24 h, replicate number 1): 0.07
Growth Rate (Fibroblast; 24 h, replicate number 2): -0.07

CC(C)NC(=O)[C@H]1CCC[C@H]1Nc1nc(Nc2ccc(CN(C)C)cc2)ncc1Br.Cl
Growth Rate (U2OS; 0 h, replicate number 1): -0.38
Growth Rate (U2OS; 0 h, replicate number 2): 0.74
Growth Rate (U2OS; 6 h, replicate number 1): 0.07
Growth Rate (U2OS; 6 h, replicate number 2): 0.17
Growth Rate (U2OS; 12 h, replicate number 1): -0.31
Growth Rate (U2OS; 12 h, replicate number 2): 0.15
Growth Rate (U2OS; 18 h, replicate number 1): 0.3
Growth Rate (U2OS; 18 h, replicate number 2): 0.24
Growth Rate (U2OS; 24 h, replicate number 1): 0.32
Growth Rate (U2OS; 24 h, replicate number 2): 0.2
Growth Rate (HEK-293T; 0 h, replicate number 2): -1
Growth Rate (HEK-293T; 6 h, replicate number 1): -0.59
Growth Rate (HEK-293T; 6 h, replicate number 2): -0.5
Growth Rate (HEK-293T; 12 h, replicate number 1): -0.3
Growth Rate (HEK-293T; 12 h, replicate number 2): -0.36
Growth Rate (HEK-293T; 18 h, replicate number 1): -0.04
Growth Rate (HEK-293T; 18 h, replicate number 2): -0.19
Growth Rate (HEK-293T; 24 h, replicate number 1): 0.2
Growth Rate (HEK-293T; 24 h, replicate number 2): 0.01
Growth Rate (Fibroblast; 6 h, replicate number 1): -0.53
Growth Rate (Fibroblast; 6 h, replicate number 2): -0.82
Growth Rate (Fibroblast; 12 h, replicate number 1): -0.42
Growth Rate (Fibroblast; 12 h, replicate number 2): -0.59
Growth Rate (Fibroblast; 18 h, replicate number 1): -0.37
Growth Rate (Fibroblast; 18 h, replicate number 2): -0.51
Growth Rate (Fibroblast; 24 h, replicate number 1): -0.38
Growth Rate (Fibroblast; 24 h, replicate number 2): -0.46

COc1cc(C(=O)NC2CCN(C)CC2)ccc1Nc1ncc(C(F)(F)F)c(NCc2ccc(C)cc2N(C)S(C)(=O)=O)n1.O=CO.O=CO
Growth Rate (U2OS; 0 h, replicate number 1): -0.98
Growth Rate (U2OS; 0 h, replicate number 2): -0.24
Growth Rate (U2OS; 6 h, replicate number 1): 0.97
Growth Rate (U2OS; 6 h, replicate number 2): -0.57
Growth Rate (U2OS; 12 h, replicate number 1): 0.11
Growth Rate (U2OS; 12 h, replicate number 2): -0.43
Growth Rate (U2OS; 18 h, replicate number 1): -0.12
Growth Rate (U2OS; 18 h, replicate number 2): -0.46
Growth Rate (U2OS; 24 h, replicate number 1): -0.27
Growth Rate (U2OS; 24 h, replicate number 2): -0.53
Growth Rate (HEK-293T; 0 h, replicate number 2): -1
Growth Rate (HEK-293T; 6 h, replicate number 1): -0.77
Growth Rate (HEK-293T; 6 h, replicate number 2): -0.51
Growth Rate (HEK-293T; 12 h, replicate number 1): -0.63
Growth Rate (HEK-293T; 12 h, replicate number 2): -0.48
Growth Rate (HEK-293T; 18 h, replicate number 1): -0.54
Growth Rate (HEK-293T; 18 h, replicate number 2): -0.33
Growth Rate (HEK-293T; 24 h, replicate number 1): -0.45
Growth Rate (HEK-293T; 24 h, replicate number 2): -0.34
Growth Rate (Fibroblast; 6 h, replicate number 1): -0.43
Growth Rate (Fibroblast; 6 h, replicate number 2): -0.42
Growth Rate (Fibroblast; 12 h, replicate number 1): -0.37
Growth Rate (Fibroblast; 12 h, replicate number 2): -0.43
Growth Rate (Fibroblast; 18 h, replicate number 1): -0.52
Growth Rate (Fibroblast; 18 h, replicate number 2): -0.55
Growth Rate (Fibroblast; 24 h, replicate number 1): -0.58
Growth Rate (Fibroblast; 24 h, replicate number 2): -0.54

CC(C)NC(=O)[C@H]1CCC[C@H]1Nc1nc(Nc2ccc(C(=O)N(C)C3CCN(C)CC3)cc2)ncc1Cl
Growth Rate (U2OS; 0 h, replicate number 1): 0.59
Growth Rate (U2OS; 0 h, replicate number 2): 0.92
Growth Rate (U2OS; 6 h, replicate number 2): 0.48
Growth Rate (U2OS; 12 h, replicate number 2): 0.53 and 0.52
Growth Rate (U2OS; 18 h, replicate number 1): 0.54 and 0.76
Growth Rate (U2OS; 18 h, replicate number 2): 0.6 and 0.8
Growth Rate (U2OS; 24 h, replicate number 1): 0.63
Growth Rate (U2OS; 24 h, replicate number 2): 0.61 and 0.9
Growth Rate (HEK-293T; 0 h, replicate number 2): -1
Growth Rate (HEK-293T; 12 h, replicate number 1): 0.62 and 0.41
Growth Rate (HEK-293T; 18 h, replicate number 1): 0.71 and 0.79
Growth Rate (HEK-293T; 18 h, replicate number 2): 0.56
Growth Rate (HEK-293T; 24 h, replicate number 1): 0.85
Growth Rate (HEK-293T; 24 h, replicate number 2): 0.69 and 0.88
Growth Rate (Fibroblast; 0 h, replicate number 1): -1
Growth Rate (Fibroblast; 6 h, replicate number 2): -0.29
Growth Rate (Fibroblast; 12 h, replicate number 1): 0.11 and 0.25
Growth Rate (Fibroblast; 18 h, replicate number 1): 0.31 and 0.66
Growth Rate (Fibroblast; 18 h, replicate number 2): 0.24 and 0.59
Growth Rate (Fibroblast; 24 h, replicate number 1): 0.54
Growth Rate (Fibroblast; 24 h, replicate number 2): 0.47
